Assay results from patent US20240025884A1 (Dong-A ST Co., Ltd., priority 2022, published 2024).

Each compound was assayed against GCN2 (Homo sapiens (Human), UniProt Q9P2K8) (assay: GCN2 Biochemical Assay (TR-FRET, GFP-eIF2S1 substrate phosphorylation)). Settings: read-out: IC50 (GCN2 Inhibitory Activity).
Outline: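 TR-FRET readout (Ex 340, Em 490/520 nm) after 2–3 h with Tb-labelled phospho-eIF2S1 antibody in stop mix, following a 70 min room-temperature kinase step. Reaction: in-house GCN2, GFP-eIF2S1, ATP, tRNA in Tris pH 7.5 (2× stocks 1.6 nM, 50 nM, 0.2 mM); compounds tested at 10 concentrations, with a phospho-substrate artifact counter-plate.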

Chain of GCN2 (Q9P2K8 whole entry): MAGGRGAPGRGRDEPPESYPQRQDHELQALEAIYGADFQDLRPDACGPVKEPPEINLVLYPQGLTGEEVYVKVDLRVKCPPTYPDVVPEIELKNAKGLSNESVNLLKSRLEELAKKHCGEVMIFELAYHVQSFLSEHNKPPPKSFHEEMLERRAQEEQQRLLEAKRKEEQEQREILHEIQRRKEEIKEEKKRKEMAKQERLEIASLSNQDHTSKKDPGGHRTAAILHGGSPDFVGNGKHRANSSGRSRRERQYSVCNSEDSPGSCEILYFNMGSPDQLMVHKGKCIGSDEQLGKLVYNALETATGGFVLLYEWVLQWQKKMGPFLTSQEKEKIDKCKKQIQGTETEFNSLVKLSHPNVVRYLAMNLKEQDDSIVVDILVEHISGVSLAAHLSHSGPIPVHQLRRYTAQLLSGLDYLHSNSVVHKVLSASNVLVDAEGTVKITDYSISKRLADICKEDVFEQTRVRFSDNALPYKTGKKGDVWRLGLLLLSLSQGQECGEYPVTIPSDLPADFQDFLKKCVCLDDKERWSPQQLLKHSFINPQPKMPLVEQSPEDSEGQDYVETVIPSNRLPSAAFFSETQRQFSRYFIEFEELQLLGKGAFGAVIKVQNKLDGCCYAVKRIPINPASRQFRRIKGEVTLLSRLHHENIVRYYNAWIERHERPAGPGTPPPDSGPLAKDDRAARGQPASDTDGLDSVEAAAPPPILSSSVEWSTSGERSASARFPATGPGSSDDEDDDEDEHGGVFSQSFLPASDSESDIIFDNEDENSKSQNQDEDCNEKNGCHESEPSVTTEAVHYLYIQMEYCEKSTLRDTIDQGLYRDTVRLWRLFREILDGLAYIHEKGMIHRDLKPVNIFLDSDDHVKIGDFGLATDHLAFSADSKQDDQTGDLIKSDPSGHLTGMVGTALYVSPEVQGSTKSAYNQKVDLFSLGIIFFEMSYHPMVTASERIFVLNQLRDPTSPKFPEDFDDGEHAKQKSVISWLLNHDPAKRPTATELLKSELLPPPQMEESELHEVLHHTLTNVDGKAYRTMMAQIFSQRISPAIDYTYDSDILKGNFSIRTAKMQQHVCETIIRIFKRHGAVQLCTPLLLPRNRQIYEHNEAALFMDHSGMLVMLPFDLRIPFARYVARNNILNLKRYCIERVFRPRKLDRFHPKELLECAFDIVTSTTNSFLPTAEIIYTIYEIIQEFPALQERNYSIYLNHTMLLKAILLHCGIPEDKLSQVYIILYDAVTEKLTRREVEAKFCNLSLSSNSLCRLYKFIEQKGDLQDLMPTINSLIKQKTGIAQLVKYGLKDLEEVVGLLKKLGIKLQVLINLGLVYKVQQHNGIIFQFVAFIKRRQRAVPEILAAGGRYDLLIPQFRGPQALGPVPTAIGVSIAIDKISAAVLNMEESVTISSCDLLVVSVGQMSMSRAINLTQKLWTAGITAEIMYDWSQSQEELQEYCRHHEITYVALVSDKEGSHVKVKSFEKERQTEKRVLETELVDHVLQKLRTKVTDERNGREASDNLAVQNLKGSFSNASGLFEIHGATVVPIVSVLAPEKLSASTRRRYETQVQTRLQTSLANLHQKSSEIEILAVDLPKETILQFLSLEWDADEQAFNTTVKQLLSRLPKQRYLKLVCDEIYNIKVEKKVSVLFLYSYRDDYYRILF

Question: Which IC50 does the source give for `Cc1cnc(Nc2cc(C)n(C)n2)nc1-c1c[nH]c2c(NC(=O)CN3CC[C@@H](C(=O)N4CCNC(=O)C4)C3)cccc12` [Example 66, (R)-N-(3-(2-((1,5-dimethyl-1H-pyrazol-3-yl)amino)-5-methylpyrimidin-4-yl)-1H-indol-7-yl)-2-(3-(3-oxopiperazine-1-carbonyl)pyrrolidin-1-yl)acetamide] here?
Answer: Its IC50 is 100 to 1000 nM.

Question: How did the IC50 turn out when `Cc1cnc(Nc2cc(C)n(C)n2)nc1-c1c[nH]c2c(NC(=O)CN3CC[C@@H](C(=O)N4CCOCC4)C3)cccc12` [Example 67, (R)-N-(3-(2-((1,5-dimethyl-1H-pyrazol-3-yl)amino)-5-methylpyrimidin-4-yl)-1H-indol-7-yl)-2-(3-(morpholine-4-carbonyl)pyrrolidin-1-yl)acetamide] was run?
Answer: Its IC50 is 100 to 1000 nM.

Question: For `Cc1cnc(Nc2cc(C)n(C)n2)nc1-c1c[nH]c2c(NC(=O)CN3CC[C@@H](C(=O)N4CCSCC4)C3)cccc12` [Example 68, (R)-N-(3-(2-((1,5-dimethyl-1H-pyrazol-3-yl)amino)-5-methylpyrimidin-4-yl)-1H-indol-7-yl)-2-(3-(thiomorpholine-4-carbonyl)pyrrolidin-1-yl)acetamide], which IC50 is on record?
Answer: Its IC50 is 10 to 100 nM.

Question: With `Cc1cnc(Nc2cc(C)n(C)n2)nc1-c1c[nH]c2c(NC(=O)CN3CC[C@H](C(=O)N4CC=CCC4)C3)cccc12` [Example 69, (S)-N-(3-(2-((1,5-dimethyl-1H-pyrazol-3-yl)amino)-5-methylpyrimidin-4-yl)-1H-indol-7-yl)-2-(3-(1,2,3,6-tetrahydropyridine-1-carbonyl)pyrrolidin-1-yl)acetamide] as the compound, how does the IC50 read?
Answer: Its IC50 is 10 to 100 nM.

Question: Which IC50 does the source give for `Cc1cnc(Nc2cc(C)n(C)n2)nc1-c1c[nH]c2c(NC(=O)CN3CCC(O)C3)cccc12` (stereo not shown) [Example 70, N-(3-(2-((1,5-dimethyl-1H-pyrazol-3-yl)amino)-5-methylpyrimidin-4-yl)-1H-indol-7-yl)-2-(3-hydroxypyrrolidin-1-yl)acetamide] here?
Answer: The IC50 was 10 to 100 nM.

Question: With `Cc1cnc(Nc2cc(C)n(C)n2)nc1-c1c[nH]c2c(NC(=O)CN3CC[C@@H](O)C3)cccc12` [Example 71, (R)-N-(3-(2-((1,5-dimethyl-1H-pyrazol-3-yl)amino)-5-methylpyrimidin-4-yl)-1H-indol-7-yl)-2-(3-hydroxypyrrolidin-1-yl)acetamide] as the compound, how does the IC50 read?
Answer: Its IC50 is 10 to 100 nM.

Question: How did the IC50 turn out when `Cc1cnc(Nc2cc(C)n(C)n2)nc1-c1c[nH]c2c(NC(=O)CN3CC[C@H](O)C3)cccc12` [Example 72, (S)-N-(3-(2-((1,5-dimethyl-1H-pyrazol-3-yl)amino)-5-methylpyrimidin-4-yl)-1H-indol-7-yl)-2-(3-hydroxypyrrolidin-1-yl)acetamide] was run?
Answer: Its IC50 is 10 to 100 nM.

Question: How did the IC50 turn out when `Cc1cnc(Nc2cc(C)n(C)n2)nc1-c1c[nH]c2c(NC(=O)CN3CC[C@H](Oc4ccccn4)C3)cccc12` [Example 73, (S)-N-(3-(2-((1,5-dimethyl-1H-pyrazol-3-yl)amino)-5-methylpyrimidin-4-yl)-1H-indol-7-yl)-2-(3-(pyridin-2-yloxy)pyrrolidin-1-yl)acetamide] was run?
Answer: Its IC50 is 10 to 100 nM.

Question: How did the IC50 turn out when `Cc1cnc(Nc2cc(C)n(C)n2)nc1-c1c[nH]c2c(NC(=O)CN3CCC(Oc4ccncc4)C3)cccc12` (stereo not shown) [Example 76, N-(3-(2-((1,5-dimethyl-1H-pyrazol-3-yl)amino)-5-methylpyrimidin-4-yl)-1H-indol-7-yl)-2-(3-(pyridin-4-yloxy)pyrrolidin-1-yl)acetamide] was run?
Answer: Its IC50 is < 10 nM.

Question: For `Cc1cnc(Nc2cc(C)n(C)n2)nc1-c1c[nH]c2c(NC(=O)CN3CC[C@@H](Oc4ccncc4)C3)cccc12` [Example 77, (R)-N-(3-(2-((1,5-dimethyl-1H-pyrazol-3-yl)amino)-5-methylpyrimidin-4-yl)-1H-indol-7-yl)-2-(3-(pyridin-4-yloxy)pyrrolidin-1-yl)acetamide], which IC50 is on record?
Answer: Its IC50 is 10 to 100 nM.

Question: `Cc1cnc(Nc2cc(C)n(C)n2)nc1-c1c[nH]c2c(NC(=O)CN3CC[C@H](Oc4ccncn4)C3)cccc12` [Example 78, (S)-N-(3-(2-((1,5-dimethyl-1H-pyrazol-3-yl)amino)-5-methylpyrimidin-4-yl)-1H-indol-7-yl)-2-(3-(pyrimidin-4-yloxy)pyrrolidin-1-yl)acetamide] was tested. Which IC50 did it give?
Answer: Its IC50 is < 10 nM.

Question: Which IC50 does the source give for `Cc1cnc(Nc2cc(C)n(C)n2)nc1-c1c[nH]c2c(NC(=O)CN3CC[C@H](Oc4cnccn4)C3)cccc12` [Example 79, (S)-N-(3-(2-((1,5-dimethyl-1H-pyrazol-3-yl)amino)-5-methylpyrimidin-4-yl)-1H-indol-7-yl)-2-(3-(pyrazin-2-yloxy)pyrrolidin-1-yl)acetamide] here?
Answer: Its IC50 is < 10 nM.

Question: How did the IC50 turn out when `Cc1cnc(Nc2cc(C)n(C)n2)nc1-c1c[nH]c2c(NC(=O)CN3CC[C@H](Oc4ccc(F)cc4)C3)cccc12` [Example 80, (S)-N-(3-(2-((1,5-dimethyl-1H-pyrazol-3-yl)amino)-5-methylpyrimidin-4-yl)-1H-indol-7-yl)-2-(3-(4-fluorophenoxy)pyrrolidin-1-yl)acetamide] was run?
Answer: Its IC50 is 100 to 1000 nM.

Question: `Cc1cnc(Nc2cc(C)n(C)n2)nc1-c1c[nH]c2c(NC(=O)CN3CC[C@H](Oc4cccc(F)c4)C3)cccc12` [Example 81, (S)-N-(3-(2-((1,5-dimethyl-1H-pyrazol-3-yl)amino)-5-methylpyrimidin-4-yl)-1H-indol-7-yl)-2-(3-(3-fluorophenoxy)pyrrolidin-1-yl)acetamide] was tested. Which IC50 did it give?
Answer: Its IC50 is 100 to 1000 nM.

Question: How did the IC50 turn out when `Cc1cnc(Nc2cc(C)n(C)n2)nc1-c1c[nH]c2c(NC(=O)CN3CC[C@H](Oc4ccc(Cl)cc4)C3)cccc12` [Example 82, (S)-2-(3-(4-chlorophenoxy)pyrrolidin-1-yl)-N-(3-(2-((1,5-dimethyl-1H-pyrazol-3-yl)amino)-5-methylpyrimidin-4-yl)-1H-indol-7-yl)acetamide] was run?
Answer: Its IC50 is 100 to 1000 nM.

Question: `Cc1cnc(Nc2cc(C)n(C)n2)nc1-c1c[nH]c2c(NC(=O)CN3CC[C@H](Oc4ccc(F)cc4F)C3)cccc12` [Example 83, (S)-2-(3-(2,4-difluorophenoxy)pyrrolidin-1-yl)-N-(3-(2-((1,5-dimethyl-1H-pyrazol-3-yl)amino)-5-methylpyrimidin-4-yl)-1H-indol-7-yl)acetamide] was tested. Which IC50 did it give?
Answer: Its IC50 is 10 to 100 nM.

Question: How did the IC50 turn out when `Cc1cnc(Nc2cc(C)n(C)n2)nc1-c1c[nH]c2c(NC(=O)CN3CC[C@H](Oc4ccc(F)c(F)c4)C3)cccc12` [Example 84, (S)-2-(3-(3,4-difluorophenoxy)pyrrolidin-1-yl)-N-(3-(2-((1,5-dimethyl-1H-pyrazol-3-yl)amino)-5-methylpyrimidin-4-yl)-1H-indol-7-yl)acetamide] was run?
Answer: Its IC50 is 100 to 1000 nM.

Question: With `Cc1cnc(Nc2cc(C)n(C)n2)nc1-c1c[nH]c2c(NC(=O)CN3CC[C@H](Oc4ccc(F)cc4Cl)C3)cccc12` [Example 85] as the compound, how does the IC50 read?
Answer: The IC50 was 100 to 1000 nM.

Question: `Cc1cnc(Nc2cc(C)n(C)n2)nc1-c1c[nH]c2c(NC(=O)CN3CC[C@H](Oc4cc(F)cc(F)c4)C3)cccc12` [Example 86] was tested. Which IC50 did it give?
Answer: Its IC50 is 100 to 1000 nM.

Question: Which IC50 does the source give for `Cc1cnc(Nc2cc(C)n(C)n2)nc1-c1c[nH]c2c(NC(=O)CN3CC[C@H](Oc4ccc(F)c(N)c4)C3)cccc12` [Example 87, (S)-2-(3-(3-amino-4-fluorophenoxy)pyrrolidin-1-yl)-N-(3-(2-((1,5-dimethyl-1H-pyrazol-3-yl)amino)-5-methylpyrimidin-4-yl)-1H-indol-7-yl)acetamide] here?
Answer: The IC50 was 10 to 100 nM.

Question: `CCN(CC)c1cccc(O[C@H]2CCN(CC(=O)Nc3cccc4c(-c5nc(Nc6cc(C)n(C)n6)ncc5C)c[nH]c34)C2)c1` [Example 88] was tested. Which IC50 did it give?
Answer: Its IC50 is 100 to 1000 nM.

Question: With `Cc1cnc(Nc2cc(C)n(C)n2)nc1-c1c[nH]c2c(NC(=O)CN3CC[C@H](Oc4cccc(N)c4)C3)cccc12` [Example 89] as the compound, how does the IC50 read?
Answer: Its IC50 is 100 to 1000 nM.

Question: Which IC50 does the source give for `Cc1cnc(Nc2cc(C)n(C)n2)nc1-c1c[nH]c2c(NC(=O)CN3CC[C@H](Oc4ccnc(N)c4)C3)cccc12` [Example 90] here?
Answer: Its IC50 is < 10 nM.

Question: How did the IC50 turn out when `Cc1cnc(Nc2cc(C)n(C)n2)nc1-c1c[nH]c2c(NC(=O)CN3CC[C@H](Oc4ccnc(Cl)c4)C3)cccc12` [Example 91] was run?
Answer: Its IC50 is 10 to 100 nM.

Question: How did the IC50 turn out when `Cc1cnc(Nc2cc(C)n(C)n2)nc1-c1c[nH]c2c(NC(=O)CN3CC[C@H](Oc4cncc(N)n4)C3)cccc12` [Example 92] was run?
Answer: The IC50 was < 10 nM.

Question: `Cc1cnc(Nc2cc(C)n(C)n2)nc1-c1c[nH]c2c(NC(=O)CN3CC[C@H](Oc4ncc(F)cn4)C3)cccc12` [Example 93] was tested. Which IC50 did it give?
Answer: The IC50 was 10 to 100 nM.

Question: Which IC50 does the source give for `Cc1cnc(Nc2cc(C)n(C)n2)nc1-c1c[nH]c2c(NC(=O)CN3CC[C@H](Oc4ncnc(Cl)c4C)C3)cccc12` [Example 94, (S)-2-(3-((6-chloro-5-methylpyrimidin-4-yl)oxy)pyrrolidin-1-yl)-N-(3-(2-((1,5-dimethyl-1H-pyrazol-3-yl)amino)-5-methylpyrimidin-4-yl)-1H-indol-7-yl)acetamide] here?
Answer: The IC50 was 10 to 100 nM.

Question: With `Cc1cc(O[C@H]2CCN(CC(=O)Nc3cccc4c(-c5nc(Nc6cc(C)n(C)n6)ncc5C)c[nH]c34)C2)nc(N)n1` [Example 95, (S)-2-(3-((2-amino-6-methylpyrimidin-4-yl)oxy)pyrrolidin-1-yl)-N-(3-(2-((1,5-dimethyl-1H-pyrazol-3-yl)amino)-5-methylpyrimidin-4-yl)-1H-indol-7-yl)acetamide] as the compound, how does the IC50 read?
Answer: Its IC50 is < 10 nM.

Question: For `Cc1cnc(Nc2cc(C)n(C)n2)nc1-c1c[nH]c2c(NC(=O)CN3CC[C@H](Oc4nc(Cl)ncc4N)C3)cccc12` [Example 96, (S)-2-(3-((5-amino-2-chloropyrimidin-4-yl)oxy)pyrrolidin-1-yl)-N-(3-(2-((1,5-dimethyl-1H-pyrazol-3-yl)amino)-5-methylpyrimidin-4-yl)-1H-indol-7-yl)acetamide], which IC50 is on record?
Answer: The IC50 was 10 to 100 nM.

Question: With `Cc1ncc(Br)c(O[C@H]2CCN(CC(=O)Nc3cccc4c(-c5nc(Nc6cc(C)n(C)n6)ncc5C)c[nH]c34)C2)n1` [Example 97, (S)-2-(3-((5-bromo-2-methylpyrimidin-4-yl)oxy)pyrrolidin-1-yl)-N-(3-(2-((1,5-dimethyl-1H-pyrazol-3-yl)amino)-5-methylpyrimidin-4-yl)-1H-indol-7-yl)acetamide] as the compound, how does the IC50 read?
Answer: The IC50 was 10 to 100 nM.

Question: How did the IC50 turn out when `Cc1cnc(Nc2cc(C)n(C)n2)nc1-c1c[nH]c2c(NC(=O)CN3CC[C@H](Oc4cc(-c5cc(Cl)ccc5F)nc(N)n4)C3)cccc12` [Example 98, (S)-2-(3-((2-amino-6-(5-chloro-2-fluorophenyl)pyrimidin-4-yl)oxy)pyrrolidin-1-yl)-N-(3-(2-((1,5-dimethyl-1H-pyrazol-3-yl)amino)-5-methylpyrimidin-4-yl)-1H-indol-7-yl)acetamide] was run?
Answer: The IC50 was 100 to 1000 nM.
